Experimental data from ChEMBL document CHEMBL3507680, “University of Dundee, Gates Library screen for HepG2 cell viability”.

Experiment: Human HepG2 cell viability assay in 384 well format
Format: toxicity, cell-based
Design: dose 125 nL, time 70.5 hour; concentration not given beside the values
Settings: HepG2 cells, read-out: Inhibition

Row | Structure (SMILES) | cytotoxicity at 70.5 h
1 | CS(=O)(=O)N1CCC(CNC(=O)C2CCC2)CC1 | 40.8%
2 | CS(=O)(=O)N1CCC(CNC(=O)C2CCCC2)CC1 | -16%
3 | COC(=O)N1CCC(CNC(=O)C2CCN(S(C)(=O)=O)CC2)CC1 | -19.3%
4 | COc1ncccc1C(=O)NCCn1nc(C)ccc1=O | -8.68%
5 | O=C(CC1CCCC1)NCCS(=O)(=O)N1CCN(c2ccccn2)CC1 | -13%
6 | O=C(NCCS(=O)(=O)N1CCN(c2ncccn2)CC1)C1CC1 | 16.5%
7 | CCc1ccc(S(=O)(=O)NCCOc2ccc3nnc(C)n3n2)s1 | -11.7%
8 | CC(=O)c1cccc(NC(=O)Cn2cnc(-c3ccccc3)cc2=O)c1 | -3%
9 | CS(=O)(=O)N1CCN(c2ccc(Nc3ccccn3)nn2)CC1 | -6.91%
10 | CC(=O)Nc1ccc(SCCCC(=O)NCC2CCCO2)nn1 (stereo not given) | -11.3%
11 | O=C(CCCSc1ccc(NC(=O)C2CC2)nn1)NCC1CCCO1 (stereo not given) | -14.1%
12 | COc1cc(OC)cc(C(=O)NCC(c2cccn2C)N2CCCC2)c1 (stereo not given) | 30.6%
13 | COc1cccc(C(=O)NCC(c2cccn2C)N2CCCC2)c1OC (stereo not given) | 3.39%
14 | COc1ccc(S(=O)(=O)NCC(c2cccn2C)N(C)C)cc1F (stereo not given) | -8.8%
15 | Cc1nc(NC(=O)c2c3c(nn2C2CCS(=O)(=O)C2)CCC3)sc1C (stereo not given) | 16.2%
16 | Cc1nnc(C2CCN(C(=O)c3cnc4ccccc4n3)CC2)s1 | -2.76%
17 | O=S(=O)(NCCNc1cc(-n2cccn2)ncn1)c1cccs1 | 12.1%
18 | CC(C)(C)c1csc(CN2CCN(S(=O)(=O)c3cccnc3)CC2)n1 | -14.8%
19 | O=S(=O)(c1cccnc1)N1CCN(Cc2nc(-c3ccco3)cs2)CC1 | 0.0264%
20 | O=C(c1ccsc1)N1CCC(c2nnc(C3CC3)o2)CC1 | 28.3%
21 | Cn1c(-c2ccccc2)nn(CCNS(=O)(=O)c2ccccc2Cl)c1=O | 0.396%
22 | Cn1c(-c2cccs2)nn(CCNS(=O)(=O)c2ccccc2Cl)c1=O | -1.9%

Row | Structure (SMILES) | cytotoxicity at 70.5 h
23 | COCCNC(=O)NCCS(=O)(=O)N1CCN(c2cccc(C)c2)CC1 | -12.5%
24 | O=S(=O)(c1c(F)cccc1F)N1CCC(Cn2cccn2)CC1 | -11.8%
25 | O=S(=O)(NCC1(c2cccs2)CCCC1)c1cccnc1 | -4.26%
26 | O=S(=O)(NCC1(c2cccs2)CCOCC1)c1cccnc1 | -6.99%
27 | O=C(CSC1CCCC1)N1CCN(C(=O)C2CC2c2ccccc2)CC1 (stereo not given) | -3.24%
28 | Cn1nnnc1SCC(=O)N1CCN(C(=O)C2CC2c2cccs2)CC1 (stereo not given) | 1.49%
29 | O=C(NCc1ccc(F)cc1)NCC(O)(c1ccco1)C1CC1 (stereo not given) | 6.32%
30 | COC(=O)c1ccc(C(=O)NCC(O)c2cccn2C)cc1 (stereo not given) | 48.7%
31 | Cn1cccc1C(O)CNC(=O)COc1ccc(Cl)cc1Cl (stereo not given) | -12%
32 | O=C(NCC(O)c1ccsc1)Nc1cccs1 (stereo not given) | 25.4%
33 | Cc1ccsc1C(O)CNC(=O)Cc1ccc(F)cc1 (stereo not given) | 25%
34 | Cc1cc(S(=O)(=O)NCC(O)c2sccc2C)ccc1F (stereo not given) | -1.45%
35 | COc1ccccc1OCC(=O)NCC(O)(c1cccs1)C1CC1 (stereo not given) | -5.23%
36 | COc1ccc(CC(C)(O)CNC(=O)c2cccs2)cc1 (stereo not given) | -15.5%
37 | COc1ccc(CC(C)(O)CNC(=O)NCc2cccs2)cc1 (stereo not given) | -13.9%
38 | O=C(CN1C(=O)CCC1=O)NCC1(O)CCc2ccccc21 (stereo not given) | 1.38%
39 | O=C(Cn1c(=O)oc2ccccc21)NCC1(O)CCc2ccccc21 (stereo not given) | -6.07%
40 | CC(O)(CNC(=O)c1c(F)cccc1Cl)C1CC1 (stereo not given) | -14.4%
41 | COc1ccccc1OCC(=O)NCC(C)(O)C1CC1 (stereo not given) | -15.3%
42 | O=S(=O)(NCC(O)c1cccs1)c1ccccc1Cl (stereo not given) | 11%
43 | COC1CCN(C(=O)CCn2ccc(=O)[nH]c2=O)CC1 | 8.52%
44 | Cc1cc(C)n(CC(=O)NCc2ccccn2)n1 | -10.7%

Row | Structure (SMILES) | cytotoxicity at 70.5 h
45 | COc1ccc(F)cc1S(=O)(=O)N1CCC(OC)CC1 | -2.88%
46 | CC(=O)c1cccc(NC(=O)Cn2cnc(-c3cccs3)cc2=O)c1 | -1.2%
47 | O=C(NCC1(CO)CC1)c1ccccc1Cl | -14.1%
48 | O=C(NCC1(CO)CC1)c1ccccc1C(F)(F)F | -9.3%
49 | COc1nn(C)cc1C(=O)NCC(=O)Nc1cccnc1 | -10.6%
50 | O=S(=O)(Cc1ccc(F)cc1)N1CCN(CC(O)C2CC2)CC1 (stereo not given) | -1.75%
51 | COc1ncccc1C(=O)N1CC(c2nc(-c3ccccn3)no2)C1 | 19.5%
52 | Fc1cccc(CNCC2Cn3nncc3CO2)c1 (stereo not given) | -7.02%
53 | O=C(c1cocn1)N1CCC2(CC1)CC(OCC1CC1)CO2 (stereo not given) | -8.99%
54 | CN(Cc1ccncc1)C1CC2(CCN(C(=O)c3ccnnc3)CC2)C1 | -9.02%
55 | CCN1CCC2(CC1)CN(C(C)=O)c1ccc(C)cc12 | -7.76%
56 | CN(Cc1cccnc1)C1CC2(CCN(C(=O)c3cnccn3)CC2)C1 | -7.42%
57 | Cc1cc(C(=O)N2CC[C@@H]3CO[C@@H](CN4CCCC4)[C@@H]3C2)no1 | -7.99%
58 | CCS(=O)(=O)N1CCN(C(=O)C(C)C)CC2(CC(=O)N(C)C2)C1 (stereo not given) | -5.47%
59 | Cc1nc(CNCC2COCc3c(-c4ccoc4)nnn3C2)cs1 (stereo not given) | -6.23%
60 | CS(=O)(=O)N1C[C@@H]2COC[C@@H](CC(=O)N3CCCO3)[C@@H]2C1 | -8.58%
61 | COc1nn(C)c2c1CCCN(S(=O)(=O)c1cccs1)C2 | 12.6%
62 | CN1C[C@@H]2CN(C(=O)C3CCOC3)C[C@@H]2C1=O (stereo not given in full) | 9.81%
63 | O=C(c1ccoc1)N1CCC2(CC1)COC(COCc1ccccn1)C2 (stereo not given) | 10.2%
64 | CN(C)C(=O)N1CC2(CCN(S(C)(=O)=O)CC2)c2ccccc21 | -1.58%
65 | O=C(Cc1ccsc1)N1CCC2(CCCN(CC3CCOCC3)C2)C1 (stereo not given) | 1.53%
66 | CN1C[C@@H]2CN(C(=O)C3CC=CC3)C[C@@H]2C1=O | -5.58%

Row | Structure (SMILES) | cytotoxicity at 70.5 h
67 | COCCN1CCC2(COCc3c(C)nc(N(C)C)nc32)C1 (stereo not given) | -2.27%
68 | CN1CCN(Cc2cn3c(n2)CN(CC2CC2)CC3)CC1 | -2.8%
69 | COc1cccc(S(=O)(=O)N2CCCc3c(OC)nn(C)c3C2)c1 | -5.16%
70 | CS(=O)(=O)N1Cc2nccn2CC(CN2CCCC2)C1 (stereo not given) | -3.59%
71 | CN(C)C(=O)COCc1ncn2c1CN(c1ncc(F)cn1)CCC2 | 9.71%
72 | Cc1cccc(N2CC[C@@H]3[C@@H](CO[C@H]3CNS(C)(=O)=O)C2)n1 | 10.6%
73 | CC(C)C(=O)N1CCCC12CCCN(C(=O)c1ccno1)C2 (stereo not given) | 13.3%
74 | Cc1noc([C@@H]2CCO[C@@H]3CCN(C(=O)Cc4ccsc4)C[C@@H]32)n1 | 11.3%
75 | Cc1ccc(N2CC[C@@H]3CN(Cc4c[nH]cn4)C[C@@H]3C2)nn1 | 11%
76 | CN(C)C(=O)N1CCN(C(=O)c2cccc(Cl)c2)CC2(CNC(=O)C2)C1 (stereo not given) | -4.76%
77 | Cc1nnc([C@@H]2CCO[C@@H]3CCN(C(=O)Cc4ccsc4)C[C@@H]32)o1 | -5.87%
78 | Cc1ccccc1CNC(=O)N1C[C@H]2C[C@H](C(=O)N3CCCC3)[C@@H](C1)O2 | -3.56%
79 | O=C(Nc1ccccc1F)C1=NOC2(CCNCC2)C1 | -2.62%
80 | O=C(Nc1ccccc1)C1=NOC2(CCNCC2)C1 | -6.36%
81 | COCCN1CCC12CCN(C(=O)Cc1cccs1)C2 (stereo not given) | -7.8%
82 | Cc1cc(CN2C[C@@H]3COC[C@]3(COCc3csc(C)n3)C2)no1 | 2.9%
83 | Cc1ccnc(OC[C@@]23CCO[C@@H]2CCN(C2CCC2)C3)n1 | 4.5%
84 | Cc1ccnc(OC[C@@]23CCO[C@@H]2CCN(c2ncccn2)C3)n1 | 5.78%
85 | CCS(=O)(=O)NC[C@]12COC[C@H]1CN(Cc1ccsc1)C2 | 7.84%
86 | Cn1cccc1C(=O)N1CCC2(CCCN2c2ncccn2)CC1 | -13.8%
87 | CC(C)CN1CC[C@@H]2[C@@H]1CCN2S(=O)(=O)c1cn(C)cn1 | -10.9%
88 | COCCN1CCC2(CC1)CN(C(C)=O)c1ccc(C)cc12 | 4.91%

Row | Structure (SMILES) | cytotoxicity at 70.5 h
89 | Cc1ncnc2c1CCN(Cc1nccs1)CC2 | -5.22%
90 | Cc1ccc(N2CCC3(CC2)CNC(=O)CO3)nn1 | -4.26%
91 | Cc1nc(COC[C@@]23CCC[C@@H]2CN(Cc2nccs2)C3)cs1 | -7.37%
92 | CS(=O)(=O)NC[C@]12COC[C@H]1CN(CCc1ccccc1)C2 | -8.06%
93 | CN1CCCCC12CCN(C(=O)c1cccn1C)CC2 | -7.36%
94 | O=C1COC2(CCN(c3ncccn3)CC2)CN1 | -1.8%
95 | CCn1nc(C)cc1C(=O)N1CC[C@H](OC)[C@H]2CN(CC3CC3)C[C@H]21 | 7.23%
96 | Cc1nc(N2CCOCC2)nc2c1COCC21CCN(CC2CC2)C1 (stereo not given) | 8.58%
97 | CS(=O)(=O)N1CCC2(CCCN(Cc3ccccn3)C2)CC1 | 10.3%
98 | CN(C)C(=O)COCc1nn(C)c2c1CCN(Cc1ccco1)C2 | -5.57%
99 | c1cnc(NC[C@@H]2CCC[C@@H]3CN(Cc4csnn4)C[C@@H]32)nc1 | -9.2%
100 | Fc1ccccc1CN1CCCC2(CCN(c3ncccn3)CC2)C1 | -3.46%
101 | Cc1nc([C@H]2C[C@@H]3CCN(Cc4scnc4C)C[C@H]3O2)no1 | -5.9%
102 | Cn1nc(Cn2cccn2)c2c1CN(C1CCOC1)C2 (stereo not given) | -6.25%
103 | Cc1ccc(N2CC[C@@H]3[C@@H]2CCN3C(=O)c2cscn2)nn1 | -4.17%
104 | CCS(=O)(=O)NC[C@]12COC[C@H]1CN(Cc1cccnc1)C2 | 7.34%
105 | Cn1nc(COc2cccnc2)c2c1CCN(Cc1ccco1)C2 | 4.18%
106 | Cc1ccc(CN2CCCC3(CCN(Cc4ccoc4)CC3)C2)cc1 | 15.4%
107 | CN(C)C[C@@H]1OC[C@H]2CN(Cc3ccoc3)CC[C@H]21 | -0.512%
108 | CN(Cc1ccncc1)C1CC2(CCN(c3ncc(F)cn3)CC2)C1 | 2.52%
109 | CN(Cc1cccnc1)C1CC2(CCN(c3ncc(F)cn3)CC2)C1 | -5.89%
110 | Cc1cnc(N2CCC3(CC2)CC(N(C)Cc2ccncc2)C3)nc1 | -5.66%
